Laboratory results taken from patent US20260215432A1, “ANTIMICROBIAL CONJUGATED OLIGOELECTROLYTES AND METHODS THEREOF” (National University of Singapore, priority 2023, published 2026).

Tests used:
[1] = system: E. coli. K12 (ATCC 10798); test: MIC, broth microdilution in CA-MHB; assay type: cell-based; settings: for MIC E. coli K12: ATCC 10798, Table 7
Experimental: (§1) Antimicrobial activity was screened against a range of pathogens made up of clinically relevant ESKAPE pathogens by determination of the minimum inhibitory concentration (MIC) in cation-adjusted Mueller-Hinton broth (CA-MHB).
(§2) Minimum inhibitory concentrations of COEs were determined through a broth microdilution method in accordance with the Clinical and Laboratory Standards Institute (CLSI) guidelines M07-A10. A single bacterial colony was isolated from an overnight culture and grown to mid-log phase (OD600~0.8). Compounds were prepared as a stock solution in DMSO and diluted in a sterile flat-bottom 96-well plate in CA-MHB. Subsequent concentrations were prepared by two-fold dilution of the initial solution. An equivalent volume of bacteria was added to the compound to a final concentration of 5×10^5 cfu/mL. Plates were incubated at 37° C. for 16-18 hours, and read at OD600 using a microplate reader (TECAN Spark®). […] MIC values were determined for each compound in triplicate.

[2] = system: methicillin-resistant S. aureus (USA300); test: MIC of compounds 1-5; assay type: cell-based; settings: USA300, Table 7
Experimental: as §2, with “triplicate. For each test, Polymyxin B (Gram-negative) or vancomycin (Gram-positive) was used as a positive control.” for “triplicate.”

MRSA = test: Resistance development by serial passaging at 0.5× MIC; assay type: cell-based, S. aureus
Experimental: (§3) The non-specific action of membrane-active antibiotics lends itself to minimal development of resistance development due to the large metabolic burden involved, unlike traditional antibiotics with a well-defined enzymatic target. Based on this premise, we passaged bacteria incubated with DM6P, or ciprofloxacin (control), at 0.5× MIC to investigate the adaptation of bacteria towards external antibiotic stress. As a control, treatment of MRSA with ciprofloxacin gave rise to antibiotic-resistant mutants within 4 passages, see FIG. 4a. […] Combined with its broad spectrum of activity, this feature opens opportunities for the use of COE antimicrobial agents to address polymicrobial infections with a lower rate of emerging antibiotic resistance.

P. aeruginosa = test: as above; assay type: cell-based
Experimental: as §3

E. facium (ATCC 19434) = test: MIC, broth microdilution in CA-MHB; assay type: cell-based; settings: CA-MHB
Experimental: as §1, §2

[3] = system: K. pneumoniae (carbapenem-resistant Enterobacterales) (ATCC BAA1705); test: MIC, broth microdilution in CA-MHB; assay type: cell-based; settings: CA-MHB
Experimental: as §1, §2

[4] = system: E. faecalis OG1RF (ATCC 47077); test: MIC, broth microdilution in CA-MHB; assay type: cell-based; settings: CA-MHB
Experimental: as §1, §2

[5] = system: Methicillin-resistant S. aureus (ATCC BAA1717); test: MIC, broth microdilution in CA-MHB; assay type: cell-based
Experimental: as §1, §2

[6] = system: P. aeruginosa (ATCC47085); test: MIC, broth microdilution in CA-MHB; assay type: cell-based; settings: CA-MHB
Experimental: as §1, §2

S. aureus (ATCC 29213) = test: MIC, broth microdilution in CA-MHB; assay type: cell-based
Experimental: as §1, §2

A. baumanii (ATCC 17978) = test: MIC, broth microdilution in CA-MHB; assay type: cell-based; settings: CA-MHB
Experimental: as §1, §2

[7] = system: M. abscesses (ATCC 19977); test: MIC against mycobacterium in Middlebrook 7H9 broth; assay type: cell-based, M. abscessus
Experimental: We also examined non-tuberculous mycobacteria (NTM). These are opportunistic pathogens that are rising in clinical significance due to their increasing prevalence and treatment difficulty. The membrane of Mycobacterium is inherently a greater antibiotic permeability barrier due to its high lipid content relative to other pathogens and long-tailed mycolic acids that contributed to its high lipophilic character. The antimicrobial activity of the TPP analogues were also evaluated against Mycobacterium in Middlebrook 7H9 broth.

PA = test: MIC in physiological-mimicking environments (MHB); assay type: cell-based, P. aeruginosa
Text: (§4) The complexities of the physiological environment often influence drug activity, particularly when cations in solution are implicated in their oligomerization-dependent mechanisms of action, such as for daptomycin. Binding of free drug to plasma proteins effectively reduces the available free concentration of the drug capable of killing bacteria, resulting in lower observable activity. We tested MIC values of DM4P and DM6P in the presence of human serum albumin (40 g L^−1) and high salt concentrations (Table 4). Under these conditions, the antimicrobial activity was minimally affected by these environmental factors, with MICs remaining within a 2-fold level.

[8] = phosphate-buffered saline; below 10 μg mL^−1 estimated by turbidimetric screening
Experimental: The solubility of all the TPP derivatives was determined in phosphate-buffered saline (PBS) (Table S3).

SA = test: MIC in physiological-mimicking environments (MHB); assay type: cell-based, S. aureus
Text: as §4

[9] = system: A549 (lung epithelial cells); test: Cytotoxicity against mammalian cell line; assay type: cell-based
Experimental: The cytotoxicity of the TPP COEs was also tested against a mammalian cell line (A549).

C(=C\c1cc(OCCC[P+](c2ccccc2)(c2ccccc2)c2ccccc2)cc(OCCC[P+](c2ccccc2)(c2ccccc2)c2ccccc2)c1)/c1ccc(/C=C/c2cc(OCCC[P+](c3ccccc3)(c3ccccc3)c3ccccc3)cc(OCCC[P+](c3ccccc3)(c3ccccc3)c3ccccc3)c2)cc1.[I-].[I-].[I-].[I-] [Compound 5]
MIC E. coli K12 [1]: 64 µg/mL | MIC MRSA [2]: 32 µg/mL

O=C(O)c1cn(C2CC2)c2cc(N3CCNCC3)c(F)cc2c1=O [ciprofloxacin, reference compound]
passages until antibiotic-resistant mutants arise (MRSA): ≤ 4 passages | resistance development (P. aeruginosa): this development occurred at a slower rate

COc1cc(/C=C/c2ccc(OCCCC[P+](c3ccccc3)(c3ccccc3)c3ccccc3)c(OC)c2)ccc1OCCCC[P+](c1ccccc1)(c1ccccc1)c1ccccc1.[I-].[I-] [DM4P]
MIC FAC (E. facium (ATCC 19434)): 1 µg/mL | MIC KP [3]: 8 µg/mL | MIC FAE [4]: 1 µg/mL | MIC EC ([1]; CA-MHB): 4 µg/mL | MIC MRSA ([5]; CA-MHB): 2 µg/mL | MIC ([5]; towards MRSA, Table 3): 2 µg/mL | MIC PA [6]: 8 µg/mL | MIC SA (S. aureus (ATCC 29213)): 2 µg/mL | MIC AB (A. baumanii (ATCC 17978)): 4 µg/mL | MIC M. abscesses [7]: 8 µg/mL | MIC CaCl2 (PA; CaCl2 1 mM): 8 µg/mL | MIC MgCl2 (PA; MgCl2 1.25mM): 8 µg/mL | MIC NaCl (PA; NaCl 300 mM): 4 µg/mL | MIC HSA (PA; human serum albumin 40 g L^−1): 8 µg/mL | MIC — (PA; no additive): 8 µg/mL | solubility in PBS [8]: 138 µg/mL | MIC CaCl2 (SA; CaCl2 1 mM): 2 µg/mL | MIC MgCl2 (SA; MgCl2 1.25mM): 2 µg/mL | MIC NaCl (SA; NaCl 300 mM): 4 µg/mL | MIC HSA (SA; human serum albumin 40 g L^−1): 2 µg/mL | MIC — (SA; no additive): 2 µg/mL | IC50 [9]: 9 µg/mL

[I-].[I-].c1ccc([P+](CCCCCCCCOc2ccc(/N=N/c3ccc(OCCCCCCCC[P+](c4ccccc4)(c4ccccc4)c4ccccc4)cc3)cc2)(c2ccccc2)c2ccccc2)cc1 [Compound 3]
MIC E. coli K12 [1]: 32 µg/mL | MIC MRSA [2]: 4 µg/mL
